Patent US9884846B2, “Crystalline salts of (S)-6-((1 acetylpiperidin-4-yl)amino)-N-(3-(3,4-dihydroisoquinolin-2(1H)-yl)-2-hydroxypropyl)pyrimidine-4-carboxamide” (GlaxoSmithKline Intellectual Property Development Limited, priority 2014, dated 2018)

How the values were obtained:
[1] = Solid-state stability on storage (degradation; physical changes by XRPD); format: physicochemical; details: 40° C./75% RH open vessel, and 50° C./Ambient closed vessel
[2] = Photolysis at 1×ICH solid state; format: physicochemical

Compound	degradation ([1]; after 4 weeks at 25° C./60% RH open vessel) [%]	physical changes by XRPD analysis ([1]; after 6 weeks at 25° C./60% RH open vessel)	degradation by photolysis [2]	form change by XRPD after photolysis [2]	physical changes by XRPD analysis ([1]; after 2 weeks at 25° C./60% RH open vessel)
CC(=O)N1CCC(Nc2cc(C(=O)NC[C@H](O)CN3CCc4ccccc4C3)ncn2)CC1.O=C(O)CCC(=O)O [Compound B, succinate salt of (S)-6-((1-acetylpiperidin-4-yl)amino)-N-(3-(3,4-dihydroisoquinolin-2(1H)-yl)-2-hydroxypropyl)pyrimidine-4-carboxamide]	≤ 0.4	No physical changes detected	Approximately 1.4%	no form change observed	
CC(=O)N1CCC(Nc2cc(C(=O)NC[C@H](O)CN3CCc4ccccc4C3)ncn2)CC1.O=C(O)c1ccccc1 [Compound C, benzoate salt of (S)-6-((1-acetylpiperidin-4-yl)amino)-N-(3-(3,4-dihydroisoquinolin-2(1H)-yl)-2-hydroxypropyl)pyrimidine-4-carboxamide]			Approximately 1.6%	no form change observed	No physical changes detected
